# From US11844866B2, “Gastroretentive extended release dosage form” (Novelstar Pharmaceuticals, Inc., priority 2020, dated 2023)
# Where two headings read alike, the source gives them in different places.
# Assays:
# API particle size (d90) = format: physicochemical; conditions: API particles
# [1] = API stability studies (stress, long term, accelerated; enantiomer interconversion); format: physicochemical
# Text: Polymorphism has been observed for Apremilast and seven polymorphic forms (designated A-G) of the active substance were identified.
# An amorphous form generally provides better solubility and bioavailability than the crystalline form and may be useful for formulations which can have better solubility, and compressibility etc. which are important for formulation and product manufacturing.
# [2] = cited from earlier work
# [3] = previously reported dosage form; cited from earlier work
# [4] = on storage and in vivo; cited from earlier work
# [5] = slightly soluble; cited from earlier work
# [6] = Solubility of Tofacitinib citrate in different pH media and water; format: physicochemical; conditions: 37 °C, read-out: Solubility @37° C., mg/mL for 6 hours
# Protocol: The active substance is a white to off-white solid, slightly soluble in water (2.9 mg/mL) and non-hygroscopic. Tofacitinib contains two chiral centers at C3 and C4. The active substance is the enantiomer with absolute configuration (R) for both the C-3 and the C-4 positions. The overall stereochemistry of tofacitinib is therefore considered as critical and is assured by the quality of the starting materials and the route of synthesis design.
# Polymorphism has been studied for the active substance. The crystalline citrate salt, Form A, has been the sole development form of the active substance used in all toxicology and clinical studies. The solubility Tofacitinib citrate is pH dependent, the solubility is decried with pH increasing. […] The pH dependent solubility can lead to pH-dependent in vivo drug release from sustained release matrices. Drug release varies as a function of movement through segments of the gastrointestinal tract with different pH. […] The Tofacitinib citrate gastric retention drug delivery system that would provide the highest bioavailability are very desirable because the drug active has highest solubility in the stomach.
structure (smiles),measurement,setting,value
CCOc1cc([C@@H](CS(C)(=O)=O)N2C(=O)c3cccc(NC(C)=O)c3C2=O)ccc1OC [Apremilast amorphous],particle size d90,API particle size (d90); listed as Apremilast amorphous form,22 μm
same,stability after 6 months,"[1]; stress conditions, long term 25° C./60% RH and accelerated 40° C./75% RH",stable
"CCOc1cc([C@@H](CS(C)(=O)=O)N2C(=O)c3cccc(NC(C)=O)c3C2=O)ccc1OC [Apremilast, (+) enantiomer of 2-[1-(3-ethoxy-4-methoxyphenyl)-2-methanesulfonylethyl]-4-acetylaminoisoindolin-1,3-dione]",solubility in aqueous buffers,[2]; irrespective of pH range,practically insoluble
same,Biopharmaceutical Classification System class,[2]; low solubility and low permeability,BCS Class 4
same,share of absorption taking place in the proximal small bowel,[3],about 93%
same,interconversion of (S)-enantiomer to (R)-enantiomer,[4],no interconversion
"C[C@@H]1CCN(C(=O)CC#N)C[C@@H]1N(C)c1ncnc2[nH]ccc12.O=C(O)CC(O)(CC(=O)O)C(=O)O [Tofacitinib citrate, 3-((3R,4R)-4-methyl-3-(methyl(7H-pyrrolo[2,3-d]pyrimidin-4 yl)amino)piperidin-1-yl)-3-oxopropanenitrile, 2-hydroxypropane-1,2,3-tricarboxylic acid]",solubility in water,[5],2900 µg/mL
same,solubility at 6 h,"[6]; pH 1.18, simulated gastric fluid, thermodynamic from solid, 0.1N HCl, final pH observed 1.18",27.8 mg/mL
same,solubility at 6 h,"[6]; pH 4.9, thermodynamic from solid, Water, final pH observed 4.90",2.9 mg/mL
same,solubility at 6 h,"[6]; pH 4.5 medium, aqueous buffer, thermodynamic from solid, pH 4.5, final pH observed 4.50",4.57 mg/mL
same,solubility at 6 h,"[6]; pH 6.8 medium, aqueous buffer, thermodynamic from solid, pH 6.8, final pH observed 6.78",2.03 mg/mL
CCOc1cc([C@@H](CS(C)(=O)=O)N2C(=O)c3cccc(NC(C)=O)c3C2=O)ccc1OC [Apremilast Form B],particle size d90,API particle size (d90),8 μm
same,stability after exposing to different stress test conditions,[1]; stress test conditions,stable
